The results in this text go back to patent publication US9737516B2, “Bicyclic heterocycles as bet protein inhibitors” (Incyte Corporation, priority 2013, dated 2017).

Bounds are passed on as bounds.

Experiment [1] addresses BRD4-BD2 (Homo sapiens (Human), UniProt O60885). Description: BRD4 AlphaScreen assay (BRD4-BD2). The experiment is classed as binding. As to conditions: H4Ac4 peptide, 20 nM BRD4-BD2, read-out: BRD4 BD-2 enzyme IC50. The method, then: (§1) BRD4-BD1 and BRD4-BD2 assays were conducted in white 384-well polystyrene plate in a final volume of 20 μL for BD1 and 40 μL for BD2. Inhibitors were first serially diluted in DMSO and added to the plate wells before the addition of other reaction components. The final concentration of DMSO in the assay was 1.25% (BD1) and 0.83% (BD2). The assays were carried out at room temperature for 75 min. in the assay buffer (50 mM HEPES, pH 7.4, 100 mM NaCl, 0.05% CHAPS, 0.01% BSA), containing 50 nM Biotin-labeled tetra-acetylated histone H4 peptide (H4Ac4), 3.8 nM (BRD4-BD1, BPS Bioscience #31040) or 20 nM (BRD4-BD2, BPS Bioscience #31041). The reaction followed by the addition of 20 μL of assay buffer supplemented with Streptavidin donor beads (PerkinElmer 6760002) and GSH Acceptor beads (PerkinElmer-AL109C) at 4 µg/mL under reduced light. After plate sealing, the plate was incubated in the dark at room temperature for 75 min. before reading on a PHERAstar FS plate reader (BMG Labtech). IC50 determination was performed by fitting the curve of percent control activity versus the log of the inhibitor concentration using the GraphPad Prism 5.0 software. IC50 data for the Examples is presented in Table 1 as determined by Assay A1.
In general terms: Alpha assays give light when donor and acceptor beads are brought close together.

Experiment [2] addresses BRD4-BD1 (Homo sapiens (Human), UniProt O60885). The experiment in a line: BRD4 AlphaScreen assay (BRD4-BD1). The experiment is classed as binding. As to conditions: H4Ac4 peptide, 3.8 nM BRD4-BD1, read-out: BRD4 BD-1 enzyme IC50. The method, then:
as §1

The test system of experiment [3] is KMS.12.BM cells. Description: KMS.12.BM cell viability assay (ATP quantitation, Cell Titer-GLO). It is filed as cell-based. Conditions: Homo sapiens, 72 h, 3 days, concentration required for 50% cell death, read-out: KMS cellular IC50. As for the experimental part:
KMS.12.BM cell line (human myeloma) was purchased from JCRB (Osaka, Japan) and maintained in RPMI with 10% FBS culture medium. To measure the cytotoxic activity of the compounds through ATP quantitation, the KMS.12.BM cells are plated in the RPMI culture medium at 5000 cells/well/per 100 μL into a 96-well polystyrene clear black tissue culture plate (Greiner-bio-one through VWR, NJ), in the presence or absence of a concentration range of test compounds. After 3 days, […] Cell Titer-GLO Luminescent (Promega, Madison, Wis.) cell culture agent is added to each well for 10 minutes at room temperature to stabilize the luminescent signal. This determines the number of viable cells in culture based on quantitation of the ATP present, which signals the presence of metabolically active cells. Luminescence is measured with the Top Count 384 (Packard Bioscience through Perkin Elmer, Boston, Mass.). Compound inhibition is determined relative to cells cultured with no drug and the IC50 is reported as the compound concentration required for 50% cell death. IC50 data for the Examples is presented in Table 2 as determined by Assay B1.
On the technique in general: Cellular ATP, detected with luciferase, serves as a proxy for viable cell number.

The subject of experiment [4] is C-myc in KMS.12.BM cells. Description: KMS.12.BM C-myc ELISA assay. It is filed as cell-based. Conditions: Homo sapiens, 2 hours. The method, then: KMS.12.BM cell line (human myeloma) was purchased from JCRB (Osaka, Japan) and maintained in RPMI with 10% FBS culture medium. To measure the C-myc inhibitory activity of the compounds, the KMS.12.BM cells are plated in the RPMI culture medium at 75000 cells/well/per 200 μL into a 96-well flat bottom polystyrene tissue culture plate (Corning through VWR, N.J.), in the presence or absence of a concentration range of test compounds. After 2 hours, cell are pelleted and lysed with Cell Extraction Buffer (BioSource, Carlsbad, Calif.) in the presence of protease inhibitors (Life Technologies, Grand Island, N.Y. and Sigma, St Louis, Mo.). Clarified lyses are tested in a C-myc commercial ELISA (Life Technologies, Grand Island, N.Y.). Compound inhibition is determined relative to cells cultured with no drug and the IC50 is reported as the compound concentration required for 50% C-myc inhibition. IC50 data for the Examples is presented in Table 3 as determined by Assay C1.
In general terms: ELISA stands for enzyme-linked immunosorbent assay.

For the molecule `Cn1cc(-c2cc3ncn(Cc4ccccc4)c3cc2OCC2CCC2)c2cc[nH]c2c1=O` [Example 17, 4-[6-(Cyclobutylmethoxy)-1-benzyl-1H-benzimidazol-5-yl]-6-methyl-1,6-dihydro-7H-pyrrolo[2,3-c]pyridin-7-one], the IC50 – broadly, the concentration that inhibits the measured activity by half – in experiment [1] was no more than 0.1 µM; in experiment [2], no more than 0.1 µM; in experiment [3] it was no more than 1 µM; in experiment [4], no more than 1 µM.
Take `CC(C)n1cnc2cc(OCC3CCC3)c(-c3cn(C)c(=O)c4[nH]ccc34)cc21` [Example 18, 4-[5-(Cyclobutylmethoxy)-1-isopropyl-1H-benzimidazol-6-yl]-6-methyl-1,6-dihydro-7H-pyrrolo[2,3-c]pyridin-7-one]: the 50% inhibitory concentration (IC50) is no more than 0.1 µM in experiment [1], no more than 0.1 µM in experiment [2], no more than 1 µM in experiment [3] and no more than 1 µM in experiment [4].
With `CC(C)n1cnc2cc(-c3cn(C)c(=O)c4[nH]ccc34)c(OCC3CCC3)cc21` [Example 19, 4-[6-(cyclobutylmethoxy)-1-isopropyl-1H-benzimidazol-5-yl]-6-methyl-1,6-dihydro-7H-pyrrolo[2,3-c]pyridin-7-one], the IC50 was no more than 0.1 µM in experiment [1], no more than 0.1 µM in experiment [2], no more than 1 µM in experiment [3] and no more than 1 µM in experiment [4].
With `Cn1cc(-c2cc3[nH]c(N4CCCCC4)nc3cc2OCC2CCC2)c2cc[nH]c2c1=O` [Example 20, 4-[5-(Cyclobutylmethoxy)-2-piperidin-1-yl-1H-benzimidazol-6-yl]-6-methyl-1,6-dihydro-7H-pyrrolo[2,3-c]pyridin-7-one], the IC50 in experiment [1] was no more than 0.1 µM; in experiment [2], no more than 0.1 µM; in experiment [3], no more than 1 µM; in experiment [4], no more than 1 µM.
